Test results reported in patent publication US9718840B2, “Condensed 5-oxazolidinone derivative” (SUMITOMO DAINIPPON PHARMA CO., LTD., priority 2014, dated 2017).
Where two headings read alike, the source gives them in different places.

Legend:
[1] = system: Rabbit nail bleeding models; assay: Bleeding time evaluation test using rabbit nail bleeding model; format: in vivo; settings: for Bleeding time: Experiment 1 (maximum 30 minutes), rabbit; for Bleeding time (fold-increase): Experiment 1, ratio to vehicle group average
Method: Rabbit nail bleeding models were prepared by a modification of the report of Wong et al. (Wong P C. et al., J. Thromb. Haemost. 7: 1313-1320 (2009)). Male rabbits (JW, 1.5 to 3.5 kg) were anesthetized by the inhalation of isoflurane (ISOFLU®, manufactured by DS Pharma Animal Health Co., Ltd.) (introduced anesthesia: 4%, continuous anesthesia: 2 to 3%).
For the intravenous administration of a test drug or a vehicle, an indwelling needle was inserted to the auricular vein, and the test drug or the vehicle was promptly intravenously administered (0.67 mL/kg) and then continuously intravenously administered (1 mL/kg/hr). One hour after the start of administration, three posterior toenails were cut and dipped in saline heated to approximately 37° C., and the bleeding time was measured. The bleeding time was defined as a time from the cutting to the arrest of bleeding, and an average value from the three nails was used. The measurement time was 30 minutes at the maximum for experiment 1 and 60 minutes at the maximum for experiment 2. In each experiment, if bleeding for 30 minutes or 60 minutes or longer was confirmed, the bleeding time was regarded as 30 minutes or 60 minutes.

[2] = system: Rabbit venous thrombus models; assay: In vivo antithrombotic effect evaluation test using rabbit (arteriovenous shunt); settings: prompt i.v. + continuous i.v.
Method: Rabbit venous thrombus models were prepared by a modification of the report of Wong et al. (Wong P C. et al., J. Pharmacol. Exp. Ther. 292: 351-357 (2000)). Male rabbits (JW, 2 to 4 kg) were anesthetized by the inhalation of isoflurane (ISOFLU®, manufactured by DS Pharma Animal Health Co., Ltd.) (introduced anesthesia: 4%, continuous anesthesia: 1.5 to 2.5%). A tracheostomy tube was inserted to each rabbit, which was then ventilated using a respirator. For the intravenous administration of a test drug and blood collection, catheters were inserted to the right femoral vein and the right femoral artery, respectively. An arteriovenous shunt filled with saline was inserted to the carotid artery and the jugular vein. The arteriovenous shunt was prepared by connecting Atom extension tubes (4Fr) having lengths of 15 cm and 13 cm to the artery side and the vein side, respectively, of a polyethylene tube (length: 60 cm, outside diameter: 11.1 mm, inside diameter: 7.9 mm). Also, 4-0 silk thread having a length of 5 cm was indwelled in the arteriovenous shunt. Blood was sent for 30 minutes from the carotid artery to the jugular vein via the arteriovenous shunt. The shunt was removed, and the weight of the silk thread covered with thrombus was measured. The weight of the silk thread measured before the experiment was subtracted from the measured weight, and the obtained value was used as a wet thrombus weight. One hour before the open of the arteriovenous shunt, the test drug or a vehicle was promptly intravenously administered (0.67 mL/kg) and then continuously intravenously administered (1 mL/kg/hr). The continuous injection was continued throughout the experiment. Further, an existing anticoagulant dabigatran (antithrombin drug) and rivaroxaban (FXa inhibitor) were tested as control drugs.
In order to measure aPTT of blood samples as an index for the intrinsic coagulation pathway, blood was collected before administration and immediately before cessation of blood flow, and plasma was prepared using 3.2% sodium citrate. After incubation at 37° C. for 6 minutes, an STA reagent Cephascreen (for aPTT assay; manufactured by Roche Diagnostics K.K.) was added in an amount equal thereto, and the mixture was further incubated for 4 minutes. STA calcium chloride (manufactured by Roche Diagnostics K.K.) was added in an amount equal thereto, and the time required for coagulation was measured.
In order to measure prothrombin time (PT) of blood samples as an index for the extrinsic coagulation pathway, blood was collected before administration and immediately before cessation of blood flow, and plasma was prepared using 3.2% sodium citrate. After incubation at 37° C. for 10 minutes, Neoplastin Plus (for PT assay; manufactured by Roche Diagnostics K.K.) was added in a double amount, and the time required for coagulation was measured.

[3] = system: human plasma; assay: Ester metabolism stability test: stability in human plasma; format: in vitro ADME; settings: 37° C., 20 minutes
Method: 198 μL of human plasma (manufactured by Cosmo Bio Inc.) was added to 2 μL of a DMSO solution containing a 100 μmol/L test substance, and the mixture was incubated at 37° C. for 20 minutes. After the incubation, the metabolic reaction was terminated by the addition of 600 μL of acetonitrile.

[4] = Ester metabolism stability test: metabolite identification by LC-MS
Excerpt: The metabolites were identified using LC (LC-Nexera X2 manufactured by Shimadzu Corp.)-MS (API4000 manufactured by AB Sciex Pte Ltd.).

[5] = Ester metabolism stability test: stability in human liver; format: in vitro ADME; settings: 37° C., 20 minutes, with NADPH
Method: A reaction solution containing 5 μL of human liver S9 (manufactured by Sekisui XenoTech, LLC, 20 mg/mL) mixed with 20 μL of 500 mmol/L Kpi (pH 7.4), 40 μL of a 5 mmol/L aqueous solution of NADPH (manufactured by Oriental Yeast Co., Ltd.), and 133 μL of ion-exchange water was added to 2 μL of a DMSO solution containing a 100 μmol/L test substance, and the mixture was incubated at 37° C. for 20 minutes. After the incubation, the metabolic reaction was terminated by the addition of 600 μL of acetonitrile.

[6] = molecular target: Human FXIa (Homo sapiens, UniProt P03951); assay: In vitro activated factor XI (FXIa) inhibition test; format: biochemical; design: purchased Enzyme Research Laboratories
[7] = dose 0.03 + 0.045 mg/kg + mg/kg/h i.v.
[8] = dose 0.1 + 0.15 mg/kg + mg/kg/h i.v.
[9] = dose 0.3 + 0.45 mg/kg + mg/kg/h i.v.
[10] = dose 0.01 + 0.015 mg/kg + mg/kg/h
[11] = dose 0.03 + 0.045 mg/kg + mg/kg/h
[12] = dose 0.1 + 0.15 mg/kg + mg/kg/h
[13] = metabolites identified using LC-MS
[14] = substrate S-2366, 37° C., 10 minutes, read-out: FXIa Inhibition activity IC50

Chain of Human FXIa (P03951 388-625 limits assumed): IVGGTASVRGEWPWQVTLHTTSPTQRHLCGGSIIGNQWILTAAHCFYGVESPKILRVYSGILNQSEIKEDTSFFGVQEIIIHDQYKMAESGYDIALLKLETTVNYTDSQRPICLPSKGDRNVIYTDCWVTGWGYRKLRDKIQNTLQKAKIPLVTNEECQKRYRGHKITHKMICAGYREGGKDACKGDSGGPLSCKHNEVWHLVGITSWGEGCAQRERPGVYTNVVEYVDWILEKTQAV
Chain of Human FXIa (P03951 19-387 partner limits assumed): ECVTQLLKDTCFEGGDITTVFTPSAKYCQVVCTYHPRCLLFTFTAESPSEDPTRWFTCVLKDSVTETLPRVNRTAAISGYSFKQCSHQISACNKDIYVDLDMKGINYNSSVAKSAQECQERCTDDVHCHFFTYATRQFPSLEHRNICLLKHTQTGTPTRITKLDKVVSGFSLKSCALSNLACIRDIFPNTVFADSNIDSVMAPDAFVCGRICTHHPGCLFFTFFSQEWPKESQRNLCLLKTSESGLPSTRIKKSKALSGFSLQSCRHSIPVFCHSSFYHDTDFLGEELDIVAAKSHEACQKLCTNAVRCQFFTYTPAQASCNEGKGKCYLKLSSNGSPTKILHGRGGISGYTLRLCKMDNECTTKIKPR

SMILES: CCCCCCOC(=O)NC(=N)c1ccc(NCc2nc3cc(C(=O)N(CCC(=O)OCC)c4ccccn4)ccc3n2C)cc1 [Dabigatran etexilate]
- Bleeding time [1, 7]: 1276 ± 353 s
- Bleeding time [1, 8]: 1800 ± 0 s
- Bleeding time [1, 9]: 1800 ± 0 s
- Bleeding time (fold-increase) [1, 7]: 2.7 ± 0.7 fold-increase
- Bleeding time (fold-increase) [1, 8]: 3.8 ± 0.0 fold-increase
- Bleeding time (fold-increase) [1, 9]: 3.8 ± 0.0 fold-increase
- PT (ratio) [2, 10]: 1.07 ± 0.02 ratio
- Thrombus weight [2, 10]: 62 ± 18 mg
- aPTT (ratio) [2, 10]: 1.28 ± 0.07 ratio
- PT (ratio) [2, 11]: 1.23 ± 0.10 ratio
- Thrombus weight [2, 11]: 32 ± 9 mg
- aPTT (ratio) [2, 11]: 1.58 ± 0.15 ratio
- PT (ratio) [2, 12]: 2.29 ± 0.29 ratio
- Thrombus weight [2, 12]: 12 ± 4 mg
- aPTT (ratio) [2, 12]: 2.34 ± 0.12 ratio

SMILES: CC1(C)OC(=O)c2cc3cc(NC(=O)[C@@H]4[C@H](C5CCCCC5)CCN4C(=O)[C@H]4CC[C@H]([C@H](N)CF)CC4)ccc3n21.Cl [Example 1, (2S,3S)-1-({trans-4-[(1S)-1-Amino-2-fluoroethyl]cyclohexyl}carbonyl)-N-(3,3-dimethyl-1-oxo-1H-[1,3]oxazolo[3,4-a]indol-7-yl)-3-cyclohexylpyrrolidine-2-carboxamide hydrochloride]
- Residual rate (%) Human plasma [3]: 29%
- Metabolite formed (conversion by metabolism) [4, 13]: converted to the compound of Reference Example 2-6
- Residual rate (%) Human liver S9 [5]: 87%

SMILES: Cl.N[C@H](CF)[C@H]1CC[C@H](C(=O)N2CC[C@@H](C3CCCCC3)[C@H]2C(=O)Nc2ccc3c(c2)cc2n3C(CF)(CF)OC2=O)CC1 [Example 6, (3S)-1-({trans-4-[(1S)-1-amino-2-fluoroethyl]cyclohexyl}carbonyl)-N-[3,3-bis(fluoromethyl)-1-oxo-1H-[1,3]oxazolo[3,4-a]indol-7-yl]-3-cyclohexyl-L-prolinamide hydrochloride]
- Residual rate (%) Human plasma [3]: 7.9%
- Metabolite formed (conversion by metabolism) [4, 13]: converted to the compound of Reference Example 2-6
- Residual rate (%) Human liver S9 [5]: 67%

SMILES: CO[C@H]1CC[C@H]([C@@H]2CCN(C(=O)[C@H]3CC[C@H]([C@H](N)CF)CC3)[C@@H]2C(=O)Nc2ccc3c(c2)cc2n3C(C)(C)OC2=O)CC1.Cl [Example 10, (3S)-1-({trans-4-[(1S)-1-amino-2-fluoroethyl]cyclohexyl}carbonyl)-N-(3,3-dimethyl-1-oxo-1H-[1,3]oxazolo[3,4-a]indol-7-yl)-3-(trans-4-methoxycyclohexyl)-L-prolinamide hydrochloride]
- Residual rate (%) Human plasma [3]: 6.7%
- Metabolite formed (conversion by metabolism) [4, 13]: converted to the compound of Example 24
- Residual rate (%) Human liver S9 [5]: 98%

SMILES: CO[C@H]1CC[C@H]([C@@H]2CCN(C(=O)[C@H]3CC[C@H]([C@H](N)CF)CC3)[C@@H]2C(=O)Nc2ccc3c(c2)cc2n3C(CF)(CF)OC2=O)CC1 [Example 13, (3S)-1-({trans-4-[(1S)-1-amino-2-fluoroethyl]cyclohexyl}carbonyl)-N-[3,3-bis(fluoromethyl)-1-oxo-1H-[1,3]oxazolo[3,4-a]indol-7-yl]-3-(trans-4-methoxycyclohexyl)-L-prolinamide]
- Residual rate (%) Human plasma [3]: 21%
- Metabolite formed (conversion by metabolism) ([4]; human, 20 min, 1 μmol/L): converted to the compound of Example 24
- Residual rate (%) Human liver S9 [5]: 69%

SMILES: CO[C@H]1CC[C@H]([C@@H]2CCN(C(=O)[C@H]3CC[C@H]([C@H](N)CF)CC3)[C@@H]2C(=O)Nc2ccc3c(c2)cc2n3C3(CCC3)OC2=O)CC1 [Example 14, (3S)-1-({trans-4-[(1S)-1-amino-2-fluoroethyl]cyclohexyl}carbonyl)-3-(trans-4-methoxycyclohexyl)-N-(1′-oxo-1′H-spiro[cyclobutane-1,3′-[1,3]oxazolo[3,4-a]indol]-7′-yl)-L-prolinamide]
- Residual rate (%) Human plasma [3]: <1%
- Metabolite formed (conversion by metabolism) ([4]; human, 20 min, 1 μmol/L): converted to the compound of Example 24
- Residual rate (%) Human liver S9 [5]: 47%

SMILES: NC[C@H]1CC[C@H](C(=O)N2CC[C@@H](C3CCCCC3)[C@H]2C(=O)Nc2ccc3[nH]c(C(=O)O)cc3c2)CC1 [Example 23]
- IC50 [6, 14]: 3 nM

SMILES: N[C@H](CF)[C@H]1CC[C@H](C(=O)N2CC[C@@H](N3CCCCC3)[C@H]2C(=O)Nc2ccc3[nH]c(C(=O)O)cc3c2)CC1 [Example 25, 5-[(2S,3R)-1-({trans-4-[(1S)-1-Amino-2-fluoroethyl]cyclohexyl}carbonyl)-3-(piperidin-1-yl)pyrrolidine-2-carboxamide]-1H-indole-2-carboxylic acid 2-trifluoroacetate]
- IC50 [6, 14]: 19 nM

SMILES: NC(CF)[C@H]1CC[C@H](C(=O)N2CC[C@@H](C3CCCCC3)[C@H]2C(=O)Nc2ccc3[nH]c(C(=O)O)c(F)c3c2)CC1 (some centres unmarked) [Reference Example 36]
- IC50 [6, 14]: 45 nM

SMILES: CCc1c(C(=O)O)[nH]c2ccc(NC(=O)[C@@H]3[C@H](C4CCCCC4)CCN3C(=O)[C@H]3CC[C@H]([C@H](N)CF)CC3)cc12 [Reference Example 42]
- IC50 [6, 14]: 91 nM

SMILES: N[C@H](CF)[C@H]1CC[C@H](C(=O)N2CC[C@@H](C3CCCCC3)[C@H]2C(=O)Nc2ccc3[nH]c(C(=O)O)c(Cl)c3c2)CC1 [compound 37]
- IC50 [6]: 18 nM

SMILES: NC(CF)[C@H]1CC[C@H](C(=O)N2CC[C@@H](c3ccc(F)cc3)[C@H]2C(=O)Nc2ccc3[nH]c(C(=O)O)cc3c2)CC1 (some centres unmarked) [compound 38]
- IC50 [6, 14]: 30 nM

SMILES: Cc1c(C(=O)O)[nH]c2ccc(NC(=O)[C@@H]3[C@H](C4CCCCC4)CCN3C(=O)[C@H]3CC[C@H]([C@H](N)CF)CC3)cc12 [compound 39]
- IC50 [6, 14]: 145 nM

SMILES: NC[C@H]1CC[C@H](C(=O)N2CC[C@@H](c3ccccc3)[C@H]2C(=O)Nc2ccc3[nH]c(C(=O)O)cc3c2)CC1 [compound 40]
- IC50 [6, 14]: 9 nM

SMILES: COc1ccc([C@H]2CCN(C(=O)[C@H]3CC[C@H]([C@H](N)CF)CC3)[C@@H]2C(=O)Nc2ccc3[nH]c(C(=O)O)cc3c2)cc1 [compound 43]
- IC50 [6, 14]: 76 nM

SMILES: N[C@H](CF)[C@H]1CC[C@H](C(=O)N2CC[C@H](c3ccc(F)cc3)[C@H]2C(=O)Nc2ccc3[nH]c(C(=O)O)cc3c2)CC1 [compound 44]
- IC50 [6, 14]: 33 nM

SMILES: N[C@H](CF)[C@H]1CC[C@H](C(=O)N2CC[C@H](c3ccccc3)[C@H]2C(=O)Nc2ccc3[nH]c(C(=O)O)c(Cl)c3c2)CC1 [compound 45]
- IC50 [6, 14]: 60 nM
